# Measurements as given in US20230002400A1, “AMORPHOUS FORM OF NITROGEN-CONTAINING TRICYCLIC COMPOUND AND USE THEREOF” (SUNSHINE LAKE PHARMA CO., LTD., priority 2019, published 2023).
# Key:
# [1] = Pharmacokinetic test in Beagle dogs, oral capsules; type: in vivo; details: dog, plasma, male Beagle dogs, 5 mg/kg orally
# Experimental: The amorphous form of compound having Formula (I) named 2-((5-cyclopropyl-3-(2,6-di chl orophenyl)i soxazol-4-yl)methoxy)-10H-spiro[b enzo[6,7]oxepino[3,2-b]pyridine-11,1′-cyclopropane]-7-carboxylic acid was filled into capsules, which was for oral administration.
# 8-12 kg Male Beagle dogs were given 5 mg/kg test sample orally, with 3 animals in each group. Blood was taken at time points of 0.25, 0.5, 1.0, 2.0, 4.0, 6.0, 8.0, 12 and 24 h. Standard curve was plotted based on concentrations of the samples in a suitable range, the concentration of the test sample in the plasma sample was measured and quantified by AB SCIEX API4000 LC-MS/MS at MRM mode. Pharmacokinetic parameters were calculated according to drug concentration -time curve using a noncompartmental model by WinNonLin 6.3 software.
# [2] = Stability test: high temperature test (60° C.); type: physicochemical
# Experimental: (1) High temperature test: A batch of the test sample was taken into a flat weighing bottle, divided into ≤5 mm thick thin layer. The sample was placed at 60° C. for 30 days. The sample was then taken on days 5, 10, and 30, and the change of the sample's color was observed. The purity of the sample was detected by HPLC, and the structure of the sample was analyzed by X-ray powder diffraction, the change of X-ray powder diffraction in high temperature test was substantially shown in FIG. 4.
# [3] = Stability test: high humidity test (25° C., RH 90% ±5%); type: physicochemical; details: for Appearance / Purity (%): High humidity 25° C., RH 90% ±5%
# Experimental: (2) High humidity test: A batch of the test sample was taken into the flat weighing bottle, divided into <5 mm thick thin layer. The sample was placed at 25° C. and RH for 90% ±5% for 30 days. The sample was then taken on days 5, 10, and 30, and the change of the sample's color was observed. The purity of the sample was detected by HPLC, and the structure of the sample was analyzed by X-ray powder diffraction, the change of X-ray powder diffraction in high humidity test was substantially shown in FIG. 5.
# [4] = Stability test: light test (light box with UV); type: physicochemical; details: for Appearance / Purity (%): Light (with UV)
# Experimental: (3) Light test: A batch of the test sample was taken into the flat weighing bottle, divided into ≤5 mm thick thin layer. The sample was placed in an opened light box (with UV) at the illuminance 4500±5001x, UV light ≥0.7w/m2 for 30 days. The sample was then taken on days 5, 13, and 30, and the change of the sample's color was observed. The purity of the sample was detected by HPLC, and the structure of the sample was analyzed by X-ray powder diffraction, the change of X-ray powder diffraction in light test was substantially shown in FIG. 6.
# [5] = Hygroscopicity test by dynamic moisture adsorption device; type: physicochemical; details: relative humidity of 80%
# Experimental: The description of the hygroscopic feature and the definition of the hygroscopic weight gain (Chinese Pharmacopoeia 2015 edition, Appendix 9103 Guidelines for Drug Hygroscopicity Tests, experimental conditions: 25° C. ±1° C., 80% ±2% relative humidity) are as described in the table below.
# An appropriate amount of the test sample was taken and the hygroscopicity of the test sample was tested by dynamic moisture adsorption device. […] That is, the amorphous form of the invention is not easily deliquescent under the influence of high humidity.
structure (smiles),measurement,setting,value
"O=C(O)c1ccc2c(c1)Oc1ccc(OCc3c(-c4c(Cl)cccc4Cl)noc3C3CC3)nc1C1(CC1)C2 [The amorphous form, 2-((5-cyclopropyl-3-(2,6-dichlorophenyl)isoxazol-4-yl)methoxy)-10H-spiro[benzo[6,7]oxepino[3,2-b]pyridine-11,1′-cyclopropane]-7-carboxylic acid]",AUC(0-t),[1],765 ng·h/mL
same,Cmax,[1],268 ng/mL
same,Tmax,[1],2 h
same,Appearance,[2]; 0 Day (start of stability test),White
same,Purity (%),"[2]; 0 Day (start of stability test), HPLC",99.66%
same,Appearance,"[2]; High temperature 60° C., 5 Days",White
same,Purity (%),"[2]; High temperature 60° C., 5 Days, HPLC",99.65%
same,Appearance,"[2]; High temperature 60° C., 10 Days",White
same,Purity (%),"[2]; High temperature 60° C., 10 Days, HPLC",99.48%
same,Appearance,"[2]; High temperature 60° C., 30 Days",White
same,Purity (%),"[2]; High temperature 60° C., 30 Days, HPLC",99.60%
same,"changes of appearance, chemical purity and crystal form","[2]; high temperature, up to 30 days, HPLC, XRPD",no obvious changes
same,Appearance,[3]; 5 Days,White
same,Purity (%),"[3]; 5 Days, HPLC",99.64%
same,Appearance,[3]; 10 Days,White
same,Purity (%),"[3]; 10 Days, HPLC",99.61%
same,Appearance,[3]; 30 Days,White
same,Purity (%),"[3]; 30 Days, HPLC",99.63%
same,"changes of appearance, chemical purity and crystal form","[3]; high humidity, up to 30 days, HPLC, XRPD",no obvious changes
same,Appearance,[4]; 5 Days,White
same,Purity (%),"[4]; 5 Days, HPLC",99.62%
same,Appearance,[4]; 13 days,White
same,Purity (%),"[4]; 13 days, HPLC",99.63%
same,Appearance,[4]; 30 days,White
same,Purity (%),"[4]; 30 days, HPLC",99.57%
same,"changes of appearance, chemical purity and crystal form","[4]; light, up to 30 days, HPLC, XRPD",no obvious changes
same,hygroscopic weight gain,[5]; after equilibrium,less than 2%
same,hygroscopic feature,[5]; criterion for the hygroscopic weight gain,slightly hygroscopic
